Values quoted from earlier work as cited in US20050118594A1, “Enzymes” (priority 2001, published 2005).

[1] = mild hypertriglyceridemia (e.g., triglycerides <400 mg/dl)

## CC(C)(Oc1ccc(C2CC2(Cl)Cl)cc1)C(=O)O (centres unmarked) [ciprofibrate]
Second generation agents, compared with gemfibrozil
  lowering of VLDL levels: to a degree similar to that produced by gemfibrozil

## Cc1ccc(C)c(OCCCC(C)(C)C(=O)O)c1 [gemfibrozil]
[1]
  decrease in triglyceride levels: ≥ 50%
  increase in HDL cholesterol concentrations: 15-25%
Mild hypertriglyceridemia, particularly in subjects with familial combined hyperlipidemia
  change in LDL cholesterol levels: either no change or an increase
Patients with heterozygous familial hypercholesterolemia
  decrease in LDL levels: 10%
